Each structure is given as a SMILES string. A value given as a limit tells only on which side of the number the result lay.

A word on the inhibition: it is the change of the read-out against control, counted positive when it falls.

In one assay the test system is pPDK1. Put plainly: Western blot, PDK1 phosphorylation in KG-1 cells. It counts as cell-based. As to conditions: Homo sapiens; KG-1, 100 nM; read-out: inhibition of pPDK1 levels. How it is done: (§1) For phosphoprotein analyses, cells were seeded into 10 cm petri dishes (10×10^6 cells/dish) in media supplemented with 10% FBS and penicillin/streptomycin. After cells recovered for 1 hr at 37° C., compounds were added in DMSO (0.1% final) and incubated for 4 or 24 hr at 37° C. Cells were then harvested by centrifugation and washed with cold PBS. Cell pellets were resuspended in cell extraction buffer (Invitrogen) supplemented with 2×Halt™ protease and phosphatase inhibitor cocktail (Thermo Scientific), 2 mM sodium orthovanadate, 10 mM EDTA and 4 mM PMSF. Samples were lysed by sonication and incubated on ice for 30 min. Cell debris was removed by centrifugation and protein concentrations were determined using the BCA Protein Assay Kit (Pierce). The clarified lysate was diluted in LDS sample buffer with reducing agent (Life Technologies). After heating to 70° C. samples were cooled and loaded onto 4-12% Bis-Tris gels (Life Technologies) at 50 μg/well. Gels were run at 110 V and proteins were transferred to a PVDF membrane. Membranes were blocked in TBS blocking buffer (Li-Cor Biosciences) for 1 hr. Primary antibodies (Cell Signaling, Sant Cruz Biotechnology) were added (1:1,000 dilution) in blocking buffer with 0.1% Tween-20 and 1:20,000 dilution of β-actin antibody and incubated for 14 hr at 4° C. […] Bands were quantitated using ImageJ.
On the technique in general: A western blot detects proteins with antibodies after separation by electrophoresis.

The next assay concerns pRSK2. Put plainly: Western blot, RSK2 phosphorylation in KG-1 cells. The following applies: Homo sapiens; KG-1, 100 nM; read-out: inhibition of pRSK2 levels. It counts as cell-based. Here is the method:
as §1

For a further assay, the system named is MV4-11 cells. Put plainly: Induction of apoptosis (Annexin V / propidium iodide flow cytometry). In kind it is cell-based, human. Here is the method: Cells were seeded in a six-well tissue culture plate in 3 mL complete growth medium (3×10^5 cells/well) and allowed to equilibrate for 1 hr at 37° C. in a humidified incubator with 5% CO2. DMSO (control), test compound, or doxorubicin was added to the wells (0.1% final DMSO concentration). Cells were returned to the incubator for 24 hrs. On the day of analysis 1×10^5 cells were labeled according to manufacturer's instructions and analyzed by flow cytometry (BD FACSCaalibur™, GH) to determine the percent of apoptotic cells (annexin V positive, AV+) and/or apoptotic dead cells (AV+ and propidium iodide positive (PI+)).
On the technique in general: In flow cytometry, cells or beads pass a laser one at a time.

Assay [1] has as its system P-PDK1. The assay is described as follows: Western blot, PDK1 phosphorylation in MV4-11 cells. It counts as cell-based, human. How it is done: (§2) For phosphoprotein analyses, cells were seeded into 10 cm petri dishes (10×10^6 cells/dish) in media supplemented with 10% FBS and penicillin/streptomycin. After cells recovered for 1 hr at 37° C., compounds were added in DMSO (0.1% final) and incubated for 4 or 24 hr at 37° C. Cells were then harvested by centrifugation and washed with cold PBS. Cell pellets were resuspended in cell extraction buffer (Invitrogen) supplemented with 2×Halt™ protease and phosphatase inhibitor cocktail (Thermo Scientific), 2 mM sodium orthovanadate, 10 mM EDTA and 4 mM PMSF. Samples were lysed by sonication and incubated on ice for 30 min. Cell debris was removed by centrifugation and protein concentrations were determined using the BCA Protein Assay Kit (Pierce). The clarified lysate was diluted in LDS sample buffer with reducing agent (Life Technologies). […] Gels were run at 110 V and proteins were transferred to a PVDF membrane. Membranes were blocked in TBS blocking buffer (Li-Cor Biosciences) for 1 hr. Primary antibodies (Cell Signaling, Sant Cruz Biotechnology) were added (1:1,000 dilution) in blocking buffer with 0.1% Tween-20 and 1:20,000 dilution of β-actin antibody and incubated for 14 hr at 4° C. Blots were washed in TBS-T. Label-conjugated goat anti-rabbit secondary antibody (IRdye® 800CW; Li-Cor Biosciences) was added in blocking buffer with 0.1% Tween-20 and 0.02% SDS and incubated for 1 hr. After washing in TBS-T followed by TBS, membranes were scanned on an Odyssey imaging system (Li-Cor Biosciences). Bands were quantitated using ImageJ.

The test system of assay [2] is P-RSK2. The assay is described as follows: Western blot, RSK2 phosphorylation in MV4-11 cells. It counts as cell-based, human. Here is the method:
as §2

Assay [3] relates to P-PDK1. Put plainly: Western blot, PDK1 phosphorylation in C1498 cells. It counts as cell-based, murine. The following applies: C1498, 30-100 nM range. How it is done: as §1, with “After heating to 70° C. samples were cooled and loaded onto 4-12% Bis-Tris gels (Life Technologies) at 50 μg/well.” left out
Assay [4] has as its system P-RSK2. The assay is described as follows: Western blot, RSK2 phosphorylation in C1498 cells. It counts as cell-based, murine. The following applies: C1498, 30-100 nM range. Here is the method:
as §1, with “After heating to 70° C. samples were cooled and loaded onto 4-12% Bis-Tris gels (Life Technologies) at 50 μg/well.” left out

The test system of assay [5] is P-PDK1. Put plainly: Western blot, PDK1 phosphorylation in A20 cells. It counts as cell-based, murine. Here is the method:
as §1, with “After heating to 70° C. samples were cooled and loaded onto 4-12% Bis-Tris gels (Life Technologies) at 50 μg/well.” left out

Assay [6] deals with P-RSK2. The assay is described as follows: Western blot, RSK2 phosphorylation in A20 cells. It counts as cell-based, murine. The following applies: Mus musculus; A20, 300 nM. How it is done: as §1
In another assay the test system is P-AKT. The assay is described as follows: Western blot, AKT phosphorylation in A20 cells. It counts as cell-based, murine. How it is done:
as §2

The test system of assay [7] is PDK1 and RSK2 phosphorylation. Put plainly: Western blot pathway modulation, summary over cell lines. It counts as cell-based. How it is done: as §1, with “After heating to 70° C. samples were cooled and loaded onto 4-12% Bis-Tris gels (Life Technologies) at 50 μg/well.” left out
Where [8] appears, read: Homo sapiens, MV4-11, FIG. 6C, 30 nM, 4 hrs.

For `C[C@H](NC(=O)c1nc(C#N)cnc1NCc1ccc(-c2cnc3[nH]nc(N)c3n2)cc1)c1ccc(F)c(F)c1` [Compound 1, 3-[4-(3-Amino-1H-pyrazolo[3,4-b]pyrazin-5-yl)-benzylamino]-6-cyano-pyrazine-2-carboxylic acid [1-(3,4-difluoro-phenyl)-ethyl]-amide], the inhibition at 0.1 µM in the assay with pPDK1 and with pRSK2 was above 80% throughout.
In the case of `CNc1n[nH]c2ncc(-c3ccc(CNc4ncc(C#N)nc4C(=O)N[C@@H](C)c4ccc(F)c(F)c4)cc3)cc12` [Compound 2, 6-Cyano-3-[4-(3-methylamino-1H-pyrazolo[3,4-b]pyridin-5-yl)-benzylamino]-pyrazine-2-carboxylic acid [1-(3,4-difluoro-phenyl)-ethyl]-amide], the “apoptosis at 100 nM” value in the assay on MV4-11 cells (100 nM) is recorded as “induces apoptosis”. For the same molecule, in the assay on MV4-11 cells (24 hours), the “apoptosis after 24 hours” value is listed as “substantial apoptosis”. The inhibition at 0.03 µM with P-PDK1 [1] (setting [8]) stood at 40%; with P-RSK2 [2] (setting [8]), 90%. The inhibition at 0.1 µM in the assay on P-PDK1 [1] (Homo sapiens, MV4-11, 100 nM) is 90%; with P-RSK2 [2] (Homo sapiens, MV4-11, 100 nM), above 95%. Also, in the assay with P-PDK1 [1] (MV4-11, 30 nM), the “fold decrease in PDK1 phosphorylation between 4 hr and 24 hr exposure” value was determined as 5 fold. For the same molecule, in the assay with P-RSK2 [2] (MV4-11, 30 nM, various times), the “inhibition of RSK2 phosphorylation” value is “potent and time-independent”. Besides, the P-PDK1 inhibition with P-PDK1 [3] is reported as around 80%. The molecule also had a P-RSK2 inhibition in the assay with P-RSK2 [4] above 90%. In addition, in the assay on P-PDK1 [5], the P-PDK inhibition plateau is listed as 70%. This molecule also gave an inhibition at 0.3 µM in the assay with P-RSK2 [6] above 90%. The “P-AKT levels” value in the assay with P-AKT is on record as “sensitive”. In [7], the “fold more inhibition of PDK1 phosphorylation after 24 hours than 4 hours” value was 2-5 fold. The “fold more potent than GSK-2334470 in inhibiting phosphorylation of both PDK1 and RSK2” value in [7] (MV4-11, FIG. 6) was 10 fold.

Source of the values: patent US20240207258A1, “HETEROCYCLIC PDK1 INHIBITORS FOR USE TO TREAT CANCER” (Viracta Therapeutics, Inc., priority 2015, published 2024).
